According to US20200271640A1, “METHOD FOR SCREENING COMPOUNDS THAT MODULATE THE ACTIVITY OF THE ELECTRON TRANSPORT CHAIN” (IMG Pharma Biotech, S.L., priority 2017, published 2020):
Entries after “also recorded” stand apart in the source; their conditions may differ.

Assays:
[1] = tested on: mitochondrial supercomplexes; assay: DAB oxidation activity assay of complexes and supercomplexes of the mitochondrial ETC in rat heart MMP; conditions: for inhibition of DAB oxidation by the substrate itself: substrate alone; for effect on NADH evoked inhibition (inhibition period) of DAB oxidation, supercomplex activity: in presence of NADH; for effect on NADPH consumption rate / NADPH-inhibition period of DAB oxidation: in presence of NADPH; for effect on succinate evoked decrease in DAB oxidation: in presence of succinate
Method: The crude homogenate was subjected to a 1000×g for 8 min, and the resultant supernatant was centrifuged again at 18,000×g for 15 min (4° C., Microfuge® 22R centrifuge, Beckman Coulter). The pellet was washed in 20 volumes of homogenized buffer using an Ultra-Turrax® (T10 basic, IKA) and re-centrifuged under the same conditions. The homogenate aliquots were stored at −80 ° C. until they were used. Protein concentration was measured by the Bradford method and adjusted to the required concentrations.
(§5) The assay buffer consisted of a phosphate buffer (pH 7,4), EDTA, Cl2Mg, BSA and 3,3′-diaminobenzidine (DAB) in the absence or in the presence of CI and CII substrates and the tested drugs. The reaction was started by adding 0.1 mg/ml membranes homogenates to the assay buffer (25° C.) or putting into contact cell membrane microarrays with assay buffer. DAB oxidation was measured every 5-10 min spectrophotometrically at 460 and 595 nm in a Multiskan microtiter plate reader (Thermo Scientific) for 960 min in the case of homogenates
Results were expressed as means of independent data points±S.E.M. In sake of clarity, biochemical data (Complex I and II activities, superoxide production and supercomplex activity) are presented as percentage of controls with or without the application of ETC inhibitors. Data were analyzed using paired Student's t-test, one-way (followed by Tukey's post hoc test) or two-way ANOVA (followed by Bonferroni's post hoc test), as appropriate.

superoxide production = assay: Superoxide production, NBT reduction in membrane homogenates; type: biochemical, rat; conditions: NADH (0.7 mM)
Method: The assay medium for measurement of superoxide production consisted of a 50 mM phosphate buffer (Na2HPO4, NaH2PO4, pH 7,4), 0.5 mg/ml nitro blue tetrazolium (NBT) as a redox dye and CI or CII substrates. The reaction was started by the addition of 0.1 mg/ml membranes homogenates for 360 min (25° C.) with or without decylubiquinone and ETC inhibitors.

[2] = tested on: NADH-ubiquinone oxidoreductase (complex I); assay: NADH-ubiquinone oxidoreductase (complex I) activity assay, DCIP reduction; type: biochemical, rat; conditions: NADH (0.7 mM)
Method: (§1) CI and CII assays were performed based on a previous protocol with some modifications. The reaction mixture consisted of potassium phosphate buffer (0.8M K2HPO4, 0.2M KH2PO4, pH 7.4), 3 mg/ml BSA, 160 μM 2,6-dichloroindophenol (DCIP) (Sigma) together with the CI or CII substrates. The reaction was started by the addition of 0.1 mg/ml membranes homogenates (25° C.) in the absence or in the presence of decylubiquinone and ETC inhibitors. […] Control experiments were performed to exclude any interference or substrate interaction.

[3] = tested on: succinate dehydrogenase (complex II); assay: succinate dehydrogenase (complex II) activity assay, DCIP reduction; type: biochemical, rat; conditions: succinate (1 mM)
Method: as §1

electron transport chain = conditions: human tissue cell membrane microarrays
Method: (§2) Membrane homogenates isolated from human liver were suspended in buffer and they were printed (4 nL per spot, 2-5 replicates per sample) at increasing concentrations together with internal patrons onto glass slides using a non-contact microarrayer (Nano_plotter NP 2.1). The same process was used for developing cell membrane microarrays of different human tissues or rat tissues. Microarrays were stored at −20° C. until they were used. ETC activity assay using DAB and NBT as redox dyes
(§3) The assay buffer consisted of a 10 mM phosphate buffer (pH 7.4), 0.05% 3,3′-diaminobenzidine (DAB) or NBT (Nitro blue tetrazolium), 0.2 mM EGTA, 3 mg/ml BSA with or without mitochondrial ETC substrates and electron carriers, such as NADH and succinate. The reaction was started by adding 100 μl of the assay buffer to cell membrane microarrays using an incubation chamber. DAB oxidation or NBT reduction were measured every 20 min using a colorimetric high resolution scanner (Epson Perfection V750 Pro) for 24 hours.
(§4) Microphotographs were captured with the same light parameters and the collection of images was quantified with the MAPIX software (version 7.3.1). The optical densities obtained at different times were analyzed and the slope determined in the linear range was used to calculate the enzymatic rate.

[4] = tested on: reactive oxygen species (ROS) such as superoxide; conditions: human tissue cell membrane microarrays
Method: as §2, §3, §4

[5] = tested on: mitochondrial supercomplexes; assay: DAB oxidation supercomplex assay in MMP isolated from heart of cynomolgus monkey; type: biochemical; conditions: MMP from hearts of cynomolgus monkey
Method: as §5

Compound: NC(=O)C1=CN([C@@H]2O[C@H](COP(=O)(O)OP(=O)(O)OC[C@H]3O[C@@H](n4cnc5c(N)ncnc54)[C@H](O)[C@@H]3O)[C@@H](O)[C@H]2O)C=CC1 [NADH]
- inhibition of DAB oxidation by the substrate itself ([1]; rat heart MMP): full blockage

Compound: [Zn+2] [Zinc]
- effect on NADH evoked inhibition (inhibition period) of DAB oxidation, supercomplex activity ([1]; rat heart MMP): enhances the inhibition period evoked by NADH

Compound: CCCCCCCCCCCCOS(=O)(=O)[O-].[Na+] [SDS]
- effect on NADH evoked inhibition (inhibition period) of DAB oxidation, supercomplex activity ([1]; rat heart MMP): effects also observed

Compound: NC(=O)c1ccc[n+]([C@@H]2O[C@H](COP(=O)([O-])OP(=O)(O)OC[C@H]3O[C@@H](n4cnc5c(N)ncnc54)[C@H](O)[C@@H]3O)[C@@H](O)[C@H]2O)c1 [NAD]
- effect on NADPH consumption rate / NADPH-inhibition period of DAB oxidation ([1]; rat heart MMP): reduces it

Compound: C=C(C)[C@H]1Cc2c(ccc3c2O[C@@H]2COc4cc(OC)c(OC)cc4[C@@H]2C3=O)O1 [rotenone]
- superoxide production using NADH (superoxide production): induces superoxide formation
- effect on NADH evoked inhibition (inhibition period) of DAB oxidation, supercomplex activity ([1]; rat heart MMP): enhances the substrate evoked inhibition of DAB oxidation

Compound: cytochrome c [cyt c]
- effect on NADH evoked inhibition (inhibition period) of DAB oxidation, supercomplex activity ([1]; rat heart MMP): cannot bypass the full inhibition caused by NADH on DAB oxidation; also recorded: decreases the time period in which a specific NADH concentration induces the DAB oxidation blockage
- effect on NADPH consumption rate / NADPH-inhibition period of DAB oxidation ([1]; rat heart MMP): increases the NADPH consumption rate
- effect on succinate evoked decrease in DAB oxidation ([1]; rat heart MMP): reduces the effect promoted by CI and CII substrates on DAB oxidation
- NADH consumption rate in the presence of ETC inhibitors ([1]; soluble cyt c, with NADH and ETC inhibitors): accelerates the NADH consumption rate

Compound: N#CC(C#N)=NNc1cccc(Cl)c1 [CCCP]
- effect on NADH evoked inhibition (inhibition period) of DAB oxidation, supercomplex activity ([1]; rat heart MMP): induces changes in both

Compound: C[C@@H]1CC[C@@]2(OC1)O[C@H]1[C@@H](O)[C@H]3[C@@H]4CC[C@H]5C[C@@H](O[C@@H]6O[C@H](CO)[C@H](O[C@@H]7O[C@H](CO)[C@@H](O)[C@H](O[C@@H]8OC[C@@H](O)[C@H](O)[C@H]8O)[C@H]7O[C@@H]7O[C@H](CO)[C@H](O)[C@H](O[C@@H]8O[C@H](CO)[C@@H](O)[C@H](O)[C@H]8O)[C@H]7O)[C@H](O)[C@H]6O)[C@H](O)C[C@]5(C)[C@H]4CC[C@]3(C)[C@H]1[C@@H]2C [digitonin]
- effect on NADH evoked inhibition (inhibition period) of DAB oxidation, supercomplex activity ([1]; rat heart MMP): enhancement on the NADH inhibition period

Compound: sodium deoxycholate
- effect on NADH evoked inhibition (inhibition period) of DAB oxidation, supercomplex activity ([1]; rat heart MMP): effects also observed

Compound: NC(=O)C1=CN([C@@H]2O[C@H](COP(=O)(O)OP(=O)(O)OC[C@H]3O[C@@H](n4cnc5c(N)ncnc54)[C@H](OP(=O)(O)O)[C@@H]3O)[C@@H](O)[C@H]2O)C=CC1 [NADPH]
- inhibition of DAB oxidation by the substrate itself ([1]; rat heart MMP): inhibits DAB oxidation

Compound: CO/C(=C/C(N)=O)[C@H](C)[C@H](/C=C/c1csc(-c2csc([C@@H](C)/C=C/C=C/C(C)C)n2)n1)OC [myxothiazol]
- DCIP reduction in the presence of NADH [2]: efficiently blocked DCIP reduction
- effect on succinate evoked decrease in DAB oxidation ([1]; rat heart MMP): promotes the blockage of the succinate-derived electron input
- DCIP reduction with succinate as substrate [3]: not myxothiazol did it

Compound: O=C(O)CCC(=O)O [succinate]
- ETC activity quantified using DAB as redox dye (electron transport chain): tissue specifically modulated
- formation of reactive oxygen species (formazan production) [4]: produces the formation of reactive oxygen species (ROS) such as superoxide
- inhibition of DAB oxidation by the substrate itself ([1]; rat heart MMP): partial inhibition

Compound: O=[N+]([O-])c1ccc(O)c([N+](=O)[O-])c1 [DNP]
- effect on NADH evoked inhibition (inhibition period) of DAB oxidation, supercomplex activity ([1]; rat heart MMP): does not alter DAB oxidation

Compound: CCCCCCCCCCC1=C(C)C(=O)C(OC)=C(OC)C1=O [dUQ, decylubiquinone]
- effect of dUQ on the inhibitor's block of DCIP reduction, NADH ([2]; myxothiazol, dUQ (50 μM)): does not produce the same effect with myxothiazol
- superoxide production using NADH (superoxide production): increased in the presence of dUQ
- effect on inhibitor mediated enhancement of NADH inhibition of DAB oxidation ([1]; dUQ at 10 μM, with NADH and rotenone, antimycin A or myxothiazol): reducing the inhibitor mediated effects; also recorded: partial blockage of the rotenone effect
- effect on inhibitor mediated enhancement of NADH inhibition of DAB oxidation ([1]; dUQ at 50 μM, with NADH and rotenone or antimycin A): potentiating those evoked by rotenone and antimycin A
- effect on DAB oxidation blockage at higher concentrations of succinate ([1]; rat heart MMP, higher concentrations of succinate (5 mM in FIG. 1e)): potentiates the DAB oxidation blockage
- effect on NADH evoked inhibition (inhibition period) of DAB oxidation, supercomplex activity ([1]; rat heart MMP): slight reduction of the NADH evoked inhibition of DAB oxidation
- effect on NADPH consumption rate / NADPH-inhibition period of DAB oxidation ([1]; rat heart MMP): NADPH-inhibition period is enhanced
- effect on NADH-dependent inhibition period of DAB oxidation ([5]; NADH (0.7 mM)): significantly reduces the NADH-dependent inhibition period of DAB oxidation
- partial blockage of the rotenone effect by dUQ ([5]; NADH with rotenone): not detected in monkey
- effect of dUQ on the inhibitor's block of DCIP reduction, succinate ([3]; antimycin A, dUQ (50 μM)): blocks the effect of antimycin A

Compound: antimycin A
- DCIP reduction in the presence of NADH [2]: not antimycin A efficiently blocked DCIP reduction
- superoxide production using NADH (superoxide production): biphasic effect in which a maximum was observed in low micromolar range
- effect on NADH evoked inhibition (inhibition period) of DAB oxidation, supercomplex activity ([1]; rat heart MMP): enhancement of the NADH-inhibition period
- effect on succinate evoked decrease in DAB oxidation ([1]; rat heart MMP): blocks the electron flux generated by CII to cyt c
- DCIP reduction with succinate as substrate [3]: did it
